Patent US20120322102A1, “GENETICALLY ENGINEERED HERBICIDE RESISTANT ALGAE” (SAPPHIRE ENERGY, INC., priority 2008, published 2012)
Read-outs that look alike come from different tables or passages of the source.

Key:
[1] = tested on: Wildtype Chlamydomonas reinhardtii; details: cited from earlier work; for Complete Growth inhibition: concentration at which growth is inhibited; for IC50: Vartak and Sujata 1997/1999, read-out: I50
[2] = tested on: Resistant Chlamydomonas reinhardtii; details: cited from earlier work; for Highest tolerated concentration: highest concentration an isolated resistant strain can tolerate; for IC50: Vartak and Sujata 1997/1999, read-out: I50
[3] = tested on: Wildtype Chlamydomonas reinhardtii; assay: Herbicide concentration at which growth of wild type algae is inhibited (chart); assay type: cell-based; details: unpublished results
Description: (§1) Provided below is an exemplary chart of herbicide concentrations that can be used in the embodiments disclosed herein. The concentrations provided are the concentration that growth of the wild type algae is inhibited at, and the highest concentrations that an isolated resistant strain of Chlamydomonas reinhardtii can tolerate. One of skill in the art would be able to determine the proper concentration of the herbicides listed in the chart without undue experimentation.

[4] = tested on: Resistant Chlamydomonas reinhardtii; assay: Highest herbicide concentration an isolated resistant strain can tolerate (chart); assay type: cell-based; details: unpublished results
Description: as §1

[5] = tested on: psbD-EPSPS (G163A/A252T) engineered C. reinhardtii strain; assay: Growth on HSM plates with increasing amounts of glyphosate; assay type: cell-based, Chlamydomonas reinhardtii; details: 0-2 mM glyphosate, chloroplast psbD-EPSPS (G163A/A252T) strain
Experimental: (§2) To characterize the effect of expressing the double mutated C. reinhardtii EPSPS directly in the chloroplast, engineered strains, along with wild type C. reinhardtii cc 1690 (mt+), were plated on HSM plates with increasing amounts of glyphosate (0-2 mM). Wild type C. reinhardtii cc1690 was sensitive to approximately 1 mM glyphosate whereas the psbD-EPSPS (G163A/A252T) and atpA-EPSPS (G163A/A252T) engineered strains were sensitive at approximately 1.8 and 1.6 mM glyphosate, respectively.

[6] = tested on: wild type C. reinhardtii cc1690 (mt+); assay: as above; assay type: cell-based, Chlamydomonas reinhardtii; details: 0-2 mM glyphosate
Experimental: as §2

[7] = tested on: atpA-EPSPS (G163A/A252T) engineered C. reinhardtii strain; assay: as above; assay type: cell-based, Chlamydomonas reinhardtii; details: 0-2 mM glyphosate, chloroplast atpA-EPSPS (G163A/A252T) strain
Experimental: as §2

## CCNc1nc(Cl)nc(NC(C)C)n1 [Atrazine]
[1]; Galloway and Mets 1984
  Complete Growth inhibition: 5 µM
[2]; Galloway and Mets 1984
  Highest tolerated concentration: 100 µM

## CCC(C)n1c(=O)[nH]c(C)c(Br)c1=O (stereo not shown) [Bromacil]
[1]; Galloway and Mets 1984
  Complete Growth inhibition: 2 µM
[2]; Galloway and Mets 1984
  Highest tolerated concentration: 50 µM

## COc1nc(C)nc(NC(=O)NS(=O)(=O)c2ccccc2Cl)n1 [Chlorsulfuron]
[1]; Winder and Spalding 1988
  Complete Growth inhibition: 100 µM
[2]; Winder and Spalding 1988
  Highest tolerated concentration: 1000 µM

## CN(C)C(=O)Nc1ccc(Cl)c(Cl)c1 [DCMU, 3-(3,4-dichlorophenyl)-1,1-dimethylurea]
[1]; Galloway and Mets 1984
  Complete Growth inhibition: 2 µM
[2]; Galloway and Mets 1984
  Highest tolerated concentration: 200 µM

## O=C(O)CNCP(=O)(O)O [Glyphosate]
[3]
  Complete Growth inhibition: 1 mM
[4]
  Complete Growth inhibition: 5 mM
[5]
  glyphosate concentration the strain was sensitive to: approximately 1.8 mM
[6]
  glyphosate concentration the strain was sensitive to: approximately 1 mM
[7]
  glyphosate concentration the strain was sensitive to: ~1.6 mM

## CC(C)C1(C)N=C(c2nc3ccccc3cc2C(=O)O)NC1=O (stereo not shown) [Imazaquin]
[1]; Winder and Spalding 1988
  Complete Growth inhibition: 1000 µM
[2]; Winder and Spalding 1988
  Highest tolerated concentration: 10000 µM

## CNc1cnn(-c2cccc(C(F)(F)F)c2)c(=O)c1Cl [Norflurazon]
[1]
  IC50: 1.1 µM
[2]
  IC50: 3.6 µM

## C[n+]1ccc(-c2cc[n+](C)cc2)cc1 [Paraquat]
[1]
  IC50: 0.7 µM
[2]
  IC50: 54 µM
